According to the NIST ThermoML archive (doi:10.1016/j.fluid.2008.09.022):
Numbers after ± are expanded uncertainties.

Test: relative permittivity at various frequencies (dimensionless)
Conditions: Liquid, Frequency=0.01 MHz, Parallel plate capacitor

CC(F)(F)F [1,1,1-trifluoroethane]
Conditions	relative permittivity
218.12 K, 2000 kPa	16.968 ± 0.035
218.13 K, 3000 kPa	17.006 ± 0.035
218.16 K, 4000 kPa	17.043 ± 0.035
218.17 K, 5000 kPa	17.076 ± 0.035
218.18 K, 11000 kPa	17.303 ± 0.034
218.19 K, 6000 kPa	17.111 ± 0.035
218.21 K, 7000 kPa	17.147 ± 0.034
218.22 K, 10000 kPa	17.264 ± 0.034
218.23 K, 8000 kPa	17.184 ± 0.034
218.23 K, 9000 kPa	17.224 ± 0.035
218.24 K, 12000 kPa	17.326 ± 0.034
218.43 K, 13000 kPa	17.338 ± 0.034
218.45 K, 14000 kPa	17.37 ± 0.034
218.48 K, 15000 kPa	17.403 ± 0.034
223.96 K, 15000 kPa	16.732 ± 0.034
223.97 K, 13000 kPa	16.66 ± 0.034
223.97 K, 14000 kPa	16.696 ± 0.034
223.98 K, 12000 kPa	16.622 ± 0.034
224 K, 2000 kPa	16.227 ± 0.034
224 K, 3000 kPa	16.267 ± 0.034
224 K, 4000 kPa	16.308 ± 0.034
224 K, 5000 kPa	16.349 ± 0.034
224 K, 6000 kPa	16.389 ± 0.034
224 K, 7000 kPa	16.432 ± 0.034
224 K, 8000 kPa	16.486 ± 0.034
224 K, 9000 kPa	16.506 ± 0.034
224 K, 10000 kPa	16.547 ± 0.034
224 K, 11000 kPa	16.582 ± 0.034
232.97 K, 14000 kPa	15.659 ± 0.033
232.97 K, 15000 kPa	15.697 ± 0.033
232.98 K, 13000 kPa	15.622 ± 0.033
232.99 K, 9000 kPa	15.465 ± 0.033
232.99 K, 10000 kPa	15.503 ± 0.033
232.99 K, 12000 kPa	15.581 ± 0.033
233 K, 6000 kPa	15.343 ± 0.033
233 K, 7000 kPa	15.387 ± 0.033
233 K, 8000 kPa	15.424 ± 0.033
233 K, 11000 kPa	15.543 ± 0.033
233.01 K, 2000 kPa	15.164 ± 0.033
233.01 K, 3000 kPa	15.207 ± 0.033
233.01 K, 4000 kPa	15.253 ± 0.033
233.01 K, 5000 kPa	15.298 ± 0.033
243.15 K, 14000 kPa	14.59 ± 0.031
243.15 K, 15000 kPa	14.629 ± 0.031
243.16 K, 2000 kPa	14.061 ± 0.032
243.16 K, 3000 kPa	14.108 ± 0.032
243.16 K, 4000 kPa	14.158 ± 0.032
243.16 K, 5000 kPa	14.203 ± 0.032
243.16 K, 6000 kPa	14.254 ± 0.032
243.16 K, 7000 kPa	14.298 ± 0.032
243.16 K, 9000 kPa	14.386 ± 0.032
243.16 K, 10000 kPa	14.43 ± 0.031
243.16 K, 11000 kPa	14.469 ± 0.031
243.16 K, 12000 kPa	14.51 ± 0.031
243.16 K, 13000 kPa	14.552 ± 0.031
243.17 K, 8000 kPa	14.34 ± 0.032
253.13 K, 2000 kPa	13.05 ± 0.031
253.13 K, 6000 kPa	13.264 ± 0.031
253.13 K, 8000 kPa	13.362 ± 0.03
253.13 K, 9000 kPa	13.407 ± 0.03
253.13 K, 15000 kPa	13.669 ± 0.03
253.14 K, 3000 kPa	13.106 ± 0.031
253.14 K, 4000 kPa	13.16 ± 0.031
253.14 K, 5000 kPa	13.209 ± 0.031
253.14 K, 7000 kPa	13.311 ± 0.031
253.14 K, 10000 kPa	13.455 ± 0.03
253.14 K, 11000 kPa	13.5 ± 0.03
253.14 K, 12000 kPa	13.543 ± 0.03
253.14 K, 14000 kPa	13.628 ± 0.03
253.15 K, 13000 kPa	13.585 ± 0.03
263.02 K, 2000 kPa	12.145 ± 0.03
263.02 K, 12000 kPa	12.685 ± 0.029
263.02 K, 13000 kPa	12.733 ± 0.029
263.03 K, 3000 kPa	12.203 ± 0.03
263.03 K, 4000 kPa	12.264 ± 0.03
263.03 K, 6000 kPa	12.379 ± 0.03
263.03 K, 7000 kPa	12.431 ± 0.03
263.03 K, 8000 kPa	12.485 ± 0.03
263.03 K, 10000 kPa	12.586 ± 0.029
263.03 K, 11000 kPa	12.636 ± 0.029
263.03 K, 14000 kPa	12.777 ± 0.029
263.03 K, 15000 kPa	12.821 ± 0.029
263.04 K, 5000 kPa	12.319 ± 0.03
263.04 K, 9000 kPa	12.536 ± 0.029
274.42 K, 2000 kPa	11.141 ± 0.029
274.42 K, 3000 kPa	11.215 ± 0.029
274.42 K, 4000 kPa	11.284 ± 0.029
274.43 K, 5000 kPa	11.346 ± 0.029
274.43 K, 6000 kPa	11.411 ± 0.028
274.43 K, 7000 kPa	11.471 ± 0.028
274.43 K, 9000 kPa	11.588 ± 0.028
274.43 K, 10000 kPa	11.644 ± 0.028
274.43 K, 12000 kPa	11.749 ± 0.028
274.44 K, 8000 kPa	11.528 ± 0.028
274.44 K, 11000 kPa	11.696 ± 0.028
274.44 K, 13000 kPa	11.798 ± 0.028
274.44 K, 14000 kPa	11.846 ± 0.028
274.44 K, 15000 kPa	11.895 ± 0.028
283.16 K, 2000 kPa	10.568 ± 0.029
283.16 K, 3000 kPa	10.641 ± 0.029
283.16 K, 4000 kPa	10.72 ± 0.028
283.16 K, 5000 kPa	10.796 ± 0.028
283.17 K, 6000 kPa	10.867 ± 0.028
283.17 K, 7000 kPa	10.936 ± 0.028
283.17 K, 8000 kPa	11.002 ± 0.028
283.17 K, 9000 kPa	11.066 ± 0.028
283.18 K, 10000 kPa	11.125 ± 0.028
283.18 K, 11000 kPa	11.183 ± 0.028
283.18 K, 12000 kPa	11.239 ± 0.028
283.19 K, 13000 kPa	11.293 ± 0.028
283.19 K, 14000 kPa	11.346 ± 0.028
283.2 K, 15000 kPa	11.397 ± 0.027
294.1 K, 2000 kPa	9.617 ± 0.03
294.1 K, 3000 kPa	9.7189 ± 0.029
294.11 K, 4000 kPa	9.8137 ± 0.029
294.11 K, 5000 kPa	9.9019 ± 0.029
294.11 K, 6000 kPa	9.9864 ± 0.029
294.11 K, 7000 kPa	10.066 ± 0.029
294.11 K, 9000 kPa	10.213 ± 0.029
294.11 K, 10000 kPa	10.281 ± 0.029
294.11 K, 11000 kPa	10.347 ± 0.029
294.11 K, 15000 kPa	10.585 ± 0.028
294.12 K, 8000 kPa	10.141 ± 0.029
294.12 K, 12000 kPa	10.409 ± 0.028
294.12 K, 13000 kPa	10.469 ± 0.028
294.12 K, 14000 kPa	10.526 ± 0.028
